Where a SMILES comes first, the peptide text is derived from it.
Columns and labels:
[1] = system: EGFR in A431 cells; assay: Interference of EGFR activation with PAR signaling, DMR signal; assay type: cell-based, human
Source text: (§1) A431 cells express large numbers of EGF receptors. AG1478 is a potent and selective EGFR tyrosine kinase inhibitor. It is also known that cholesterol removal by mβCD triggers a ligand-independent transactivation of EGFR in A431 cells. Thus, we were interested the interference of EGFR activation with PAR signaling. The preceding stimulation with EGF had little effect on the Ca^2+ mobilization induced by trypsin (Fig. 9a) or thrombin (data not shown).
(§2) Figure 9 The effect of preceding EGF stimulation on PAR signaling. (a) The Ca^2+ mobilization. (b, c) The DMR signals. The ligands were EGF (100 nM), trypsin (100 nM), and thrombin (40 unit/ml). The cell responses with the pre-treatment with the HBSS only were also included as control.
(§3) Corning® Epic™ angular interrogation system with transverse magnetic or p-polarized TM0 mode was used for all studies. The detailed instrumental setup and assay protocols had been previously described. Briefly, all compound solutions were prepared using 1 × HBSS containing minimal amount of dimethyl sulfoxide, while the starved cells were washed and maintained with 100 μl the serum-free DMEM. The cells were then treated with 50 μl 1 × HBSS buffered solution in the absence and presence of a compound, followed by stimulation with ligand solutions. The cellular responses were monitored in real time throughout the assays.

[2] = system: EGFR in A431 cells; set-up: method as in PMID 16766609; conditions: blockage of EGFR tyrosine kinase activity in A431; cited from earlier work
[3] = system: endogenous PAR1 and PAR2 in A431 cells; assay: Fluo-3 Ca2+ mobilization (Ca2+ flux) assay in quiescent A431 cells; assay type: cell-based, human; conditions: for maximal [Ca^2+]i elevation: SFLLR-amide at 80 μM; for responsiveness (Ca^2+ mobilization) after pre-stimulation with thrombin: thrombin 40 unit/ml first; for Ca^2+ mobilization response after pre-stimulation with trypsin: trypsin 200 nM first, repeated stimulation separated by 6 min; for rapid and transient increase in intracellular Ca^2+: quiescent A431 cells
Experimental: (§4) Human epidermoid carcinoma A431 cells ([…]) were grown in Dulbecco's modified Eagle's medium (DMEM) supplemented with 10% fetal bovine serum (FBS), 4.5 g/liter glucose, 2 mM glutamine, and antibiotics. ~5 × 10^4 cells at passage 3 to 8 suspended in 200 μl the DMEM medium containing 10% FBS were placed in each well of a 96well microplate, and were cultured at 37°C under air/5% CO2 for ~2 days, followed by ~20 hr starvation through continuously culturing in the serum-free DMEM.
Cells were grown in Costar™ 96well clear cell culture microplates. After starvation, the cells were washed with 1× HBSS (1× regular Hank's balanced salt solution, 20 mM HEPES buffer, pH 7.0) in the presence of 2.5 mM probenicid, and labeled in the same buffer containing 4 μM Fluo-3 for 1 hour at room temperature. The cells were then washed twice with buffer, maintained with 100 μl 1× HBSS containing 2.5 mM probenicid. The assay was initiated by transferring 50 μl PAR agonist solution to the cell plate, and calcium signal was recorded over 6 minutes with a 6 sec interval using HTS7000 BioAssay Reader (PerkinElmer Life Science, Boston, MA). The fluorescent intensity before stimulation was recorded and used as a baseline. The percentage increase in fluorescence intensity after stimulation, relative to the baseline fluorescence, was analyzed and used directly as a measure for the increase of intracellular Ca^2+ level induced by PAR agonists.
(§5) Unless specifically mentioned, three replicates were carried out for each measurement or each compound. The standard deviation was derived from these measurements (n = 3). […] All dose-dependent responses were analyzed using non-linear regression method with the Prism software (Graph Pad).

[4] = system: endogenous PAR1 and PAR2 in A431 cells; assay: MRCAT resonant waveguide grating biosensor DMR assay in quiescent A431 cells; assay type: cell-based, human; conditions: for effect of preceding stimulation on trypsin-induced DMR signal: trypsin 200 nM; for desensitization of trypsin-treated cells (DMR signal): trypsin 200 nM first, repeated stimulation separated by ~1 hr; for Gq-type DMR signal: quiescent A431 cells, 20 μM
Experimental: as §4, §3, §5

[5] = system: A431 cells; assay: Cell toxicity / cell detachment from the biosensor surface; assay type: cell-based, human; conditions: high doses (>8 mM)
[6] = system: cell surface cholesterol of A431 cells; assay: Effect of cholesterol depletion (cyclodextrin pre-treatment) on agonist-induced DMR signals; assay type: cell-based, human
Experimental: Similarly, the mβCD pre-treatment also led to a dose-dependent attenuation of the DMR signals induced by thrombin or trypsin (Fig. 7). However, there is a clear distinction between the inhibition curves of trypsin- and thrombin-induced DMR signals by mβCD. […] As expected, αCD up to 8 mM had little effect on both agonist-induced DMR responses. […] A23187 is a Ca^2+ ionophore, and is able to release stored Ca^2+ from the endoplasmic reticulum in cells.
Figure 7 Cholesterol removal attenuates the agonist-induced DMR signals. mβCD was used to deplete cell surface cholesterol. Its effect on the amplitudes of the P-DMR events induced by (a) thrombin (40 unit/ml) or (b) trypsin (200 nM) was analyzed. In comparison, the effect of αCD was also included. (c) The DMR signals of A431 cells induced by A23187 without or with the pre-treatment with 5 mM mβCD.
as §3

[7] = system: cell surface cholesterol of A431 cells; assay: Effect of cholesterol depletion (cyclodextrin pre-treatment) on agonist-induced Ca2+ mobilization; assay type: cell-based, human; conditions: for IC50: one-phase decay fit
Source text: Since the physiological significance of co-expression of two receptors in A431 is unclear, we were interested in the possibility of differentiated regulation of PAR1 and PAR2 signaling. A common mechanism for the cell to regulate and differentiate receptor signaling is compartmentalization of receptors and/or their signaling components. Amassing evidences support the hypothesis that there are many cholesterol-rich microdomains at the cell surface membrane, although their characteristics are still under extensive investigations. Such microdomain is believed to enable the sorting and segregation of receptors and their signaling cascades, thus regulating cell signaling. Methyl-β-cyclodextrin (mβCD) has been widely used to extract cell surface choleterol primarily through effluxing, thus disrupting these cholesterol-rich microdomains. Thus, we examined the effect of cholesterol depletion by mβCD on both Ca^2+ mobilization and DMR responses induced by thrombin and trypsin. […] Both dose-dependent inhibition curves appeared fit well with a one-phase decay non-linear regression, leading to an almost identical half-concentration (C1/2 of ~1.5 mM) of mβCD. This is consistent with the fact that mβCD results in rapid effluxing of cell membrane cholesterol molecules; and the amount of remain cell surface cholesterol depends on the concentration of mβCD in solution [27]. The higher concentration mβCD is, the less cholesterol is retained at the cell surface membrane. […]
(§6) Cells were grown in Costar™ 96well clear cell culture microplates. […] The assay was initiated by transferring 50 μl PAR agonist solution to the cell plate, and calcium signal was recorded over 6 minutes with a 6 sec interval using HTS7000 BioAssay Reader (PerkinElmer Life Science, Boston, MA). The fluorescent intensity before stimulation was recorded and used as a baseline. The percentage increase in fluorescence intensity after stimulation, relative to the baseline fluorescence, was analyzed and used directly as a measure for the increase of intracellular Ca^2+ level induced by PAR agonists.

[8] = system: EGFR in A431 cells; assay: Interference of EGFR activation with PAR signaling, Ca2+ mobilization; assay type: cell-based, human; conditions: EGF 100 nM; trypsin 100 nM, thrombin 40 unit/ml
Source text: as §1, §2, §6

[9] = 100 nM, trypsin 100 nM, thrombin 40 unit/ml

## COc1cc2ncnc(Nc3cccc(Cl)c3)c2cc1OC [AG1478]
[1]; data not shown
  effect of pre-treatment on inhibition of trypsin-induced DMR by cholesterol depletion: did not counter the inhibitory effect
[2]
  effect on trypsin-induced DMR signal: partially attenuated

## CC[C@H](C)[C@H](NC(=O)[C@H](CC(C)C)NC(=O)[C@@H](N)CO)C(=O)NCC(=O)N[C@@H](CCCCN)C(=O)N[C@H](C(N)=O)C(C)C [SLIGKV-amide] (H-SLIGKV-NH2; N-terminus assumed)
[3]; A431 cells
  maximal [Ca^2+]i elevation: 52 ± 6%
[3]; A431 cells, read-out: EC50 (n = 3) Ca^2+ flux assay
  EC50: 0.0038 ± 0.0004 mM
[3]; peptide 20 μM first, then trypsin 200 nM, separated by 6 min
  effect of preceding stimulation on trypsin-induced Ca^2+ mobilization: partially attenuated
[3]; separated by 6 min
  responsiveness (Ca^2+ mobilization) after pre-stimulation with thrombin: not
[3]
  Ca^2+ mobilization response after pre-stimulation with trypsin: completely blocked
[4]; A431 cells, amplitude of N-DMR event, read-out: EC50 (n = 3) N-DMR
  EC50: 0.0091 ± 0.0022 mM
[4]; A431 cells, amplitude of P-DMR event, read-out: EC50 (n = 3) P-DMR
  EC50: 0.0061 ± 0.001 mM
[4]; separated by ~1 hr
  DMR signals in cells with or without pre-stimulation with thrombin: almost identical DMR signals
  effect of preceding stimulation on trypsin-induced DMR signal: only partially attenuated
[4]
  desensitization of trypsin-treated cells (DMR signal): only partially

## OC[C@H]1O[C@@H]2O[C@H]3[C@H](O)[C@@H](O)[C@@H](O[C@H]4[C@H](O)[C@@H](O)[C@@H](O[C@H]5[C@H](O)[C@@H](O)[C@@H](O[C@H]6[C@H](O)[C@@H](O)[C@@H](O[C@H]7[C@H](O)[C@@H](O)[C@@H](O[C@H]1[C@H](O)[C@H]2O)O[C@@H]7CO)O[C@@H]6CO)O[C@@H]5CO)O[C@@H]4CO)O[C@@H]3CO [αCD, α-cyclodextrin]
[5]
  cell toxicity and cell detachment from the biosensor surface: detectable cell toxicity
[6]; up to 8 mM
  effect on both agonist-induced (thrombin, trypsin) DMR responses: little effect
[7]; up to 8 mM
  effect on trypsin and thrombin-induced Ca^2+ mobilization responses: little effect

## GYPGQV
[3]
  rapid and transient increase in intracellular Ca^2+: only PAR1 and PAR2 agonists resulted in
[4]
  Gq-type DMR signal: only PAR1 and PAR2 agonists resulted in

## Methyl-β-cyclodextrin [mβCD]
[6]; pre-treatment at 5 mM
  effect on DMR signal induced by 5 μM A23187: little effect
[6]; thrombin 40 unit/ml, P-DMR amplitude, read-out: C1/2 for suppression of thrombin-induced DMR
  IC50: 1.2 ± 0.3 mM
[6]; trypsin 200 nM, 2-phase decay, read-out: C1/2 for inhibition of trypsin-mediated DMR, first phase
  IC50: 5 ± 1 mM
[6]; trypsin 200 nM, 2-phase decay, read-out: C1/2 for inhibition of trypsin-mediated DMR, second phase
  IC50: 11 ± 2 mM
[7]; thrombin 40 unit/ml, read-out: half-concentration (C1/2) for suppression of thrombin-induced Ca^2+ mobilization
  IC50: ~1.5 mM
[7]; trypsin 200 nM, read-out: half-concentration (C1/2) for suppression of trypsin-induced Ca^2+ mobilization
  IC50: ~1.5 mM

## TFRGAP
[3]
  rapid and transient increase in intracellular Ca^2+: only PAR1 and PAR2 agonists resulted in
[4]
  Gq-type DMR signal: only PAR1 and PAR2 agonists resulted in

## Thrombin: serine protease, PAR1 agonist, purchased from Sigma
[3]; A431 cells
  EC50 (n = 3) Ca^2+ flux assay: 6.0 ± 1.0 unit/ml
  maximal [Ca^2+]i elevation: 48 ± 4%
[3]; separated by 6 min
  responsiveness (Ca^2+ mobilization) after pre-stimulation with thrombin: completely inhibited
[3]
  Ca^2+ mobilization response after pre-stimulation with trypsin: completely blocked
[4]; A431 cells, amplitude of N-DMR event
  EC50 (n = 3) N-DMR: 11.0 ± 1.9 unit/ml
[4]; A431 cells, amplitude of P-DMR event
  EC50 (n = 3) P-DMR: 9.6 ± 2.0 unit/ml
[4]; separated by ~1 hr
  effect of preceding stimulation on trypsin-induced DMR signal: only partially attenuated
[4]
  desensitization of trypsin-treated cells (DMR signal): completely desensitized

## bradykinin (RPPGFSPFR; Bradykinin; UniProt P01042 381-389, looked up) [agonist for bradykinin B2 receptor]
[3]; bradykinin 100 nM, separated by 6 min
  Ca^2+ mobilization response after pre-stimulation with PAR agonists: neither of PAR agonists examined had any effect
[4]; bradykinin 100 nM first, separated by ~1 hr
  effect of preceding stimulation on DMR signal induced by any PAR agonist: no obvious effect
[4]
  desensitization of trypsin-treated cells (DMR signal): not

## epidermal growth factor (NSDSECPLSHDGYCLHDGVCMYIEALDKYACNCVVGYIGERCQYRDLKWWELR; UniProt P01133 971-1023, looked up) [EGF, epidermal growth factor, purchased from Sigma]
[1]; [9]
  effect on N-DMR event induced by either trypsin or thrombin: almost completely inhibited
  effect on P-DMR event induced by either trypsin or thrombin: only slightly attenuated
[8]
  effect of preceding stimulation on Ca^2+ mobilization induced by trypsin or thrombin: little effect

Source: publication PMC1925066, “Optical biosensor differentiates signaling of endogenous PAR1 and PAR2 in A431 cells” (BMC Cell Biology, 2007)
